Source: patent publication US9302999B2, “Substituted triazoles as herbicides” (E. I. DU PONT DE NEMOURS AND COMPANY, priority 2012, dated 2016)

How the values were obtained:
Assay type in all cases: in vivo
corn (Zea mays) = assay: Test E pre-/postemergence: corn; conditions: scale 0 to 100
Description: (§1) Seeds of plant species selected from corn (Zea mays), soybean (Glycine max), velvetleaf (Abutilon theophrasti), lambsquarters (Chenopodium album), poinsettia, wild (wild poinsettia, Euphorbia heterophylla), pigweed, palmer (palmer pigweed, Amaranthus palmeri), waterhemp (common waterhemp, Amaranthus rudis), smartweed (ladysthumb smartweed, Polygonum persicaria), surinam grass (Brachiaria decumbens), crabgrass, large (large crabgrass, Digitaria sanguinalis), crabgrass, Brazil (Brazilian crabgrass, Digitaria horizontalis), panicum, fall (fall panicum, Panicum dichotomiflorum), foxtail, giant (giant foxtail, Setaria faberii), foxtail, green (green foxtail, Setaria viridis), goosegrass (Eleusine indica), johnsongrass (Sorghum halepense), ragweed (common ragweed, Ambrosia elation), barnyardgrass (Echinochloa crus-galli), sandbur (southern sandbur, Cenchrus echinatus), arrowleaf sida (Sida rhombifolia), ryegrass, Italian (Italian ryegrass, Lolium multiflorum), dayflower, (VA) (Virginia dayflower, Commelina virginica), field bindweed (Convolvulus arvensis), cocklebur (common cocklebur, Xanthium strumarium), morningglory (Ipomoea coccinea), nightshade (eastern black nightshade, Solanum ptycanthum), kochia (Kochia scoparia), nutsedge, yellow (yellow nutsedge, Cyperus esculentus) and beggarticks (hairy beggarticks, Bidens pilosa) were planted into a silt loam soil and treated preemergence with test chemicals formulated in a non-phytotoxic solvent mixture which included a surfactant. At the same time, plants selected from these crop and weed species were planted in pots containing a growing medium comprising spaghnum peat moss, vermiculite, wetting agent and starter nutrients and treated with postemergence applications of some of the test chemicals formulated in the same manner. Plants ranged in height from 2 to 18 cm for postemergence treatments (1- to 4-leaf stage).
(§2) Treated plants and controls were maintained in a greenhouse for 14 to 21 days, after which time all species were compared to controls and visually evaluated. Plant response ratings, summarized in Table E, are based on a scale of 0 to 100 where 0 is no effect and 100 is complete control. A dash (-) response means no test result.

soybean (Glycine max) = assay: Test E pre-/postemergence: soybean; conditions: scale 0 to 100
Description: as §1, §2

[1] = tested on: crabgrass, Brazil (Brazilian crabgrass, Digitaria horizontalis); assay: Test E pre-/postemergence: crabgrass, Brazil; conditions: scale 0 to 100
Description: as §1, §2

[2] = tested on: foxtail, giant (giant foxtail, Setaria faberii); assay: Test E pre-/postemergence: foxtail, giant; conditions: Preemergence, scale 0 to 100
Description: as §1, §2

[3] = tested on: foxtail, green (green foxtail, Setaria viridis); assay: Test E pre-/postemergence: foxtail, green; conditions: Preemergence, scale 0 to 100
Description: as §1, §2

[4] = tested on: field bindweed (Convolvulus arvensis); assay: Test E pre-/postemergence: field bindweed; conditions: scale 0 to 100
Description: as §1, §2

Cc1nn(-c2ccc(F)cc2)nc1Cc1ccnc(C(F)(F)F)c1 [Compound 16, 4-[[2-(4-fluorophenyl)-5-methyl-2H-1,2,3-triazol-4-yl]methyl]-2-(trifluoromethyl)pyridine]
Plant response rating: Corn (corn (Zea mays); Preemergence, 8 g ai/ha): 0
Plant response rating: Corn (corn (Zea mays); Preemergence, 16 g ai/ha): 0
Plant response rating: Corn (corn (Zea mays); Preemergence, 31 g ai/ha): 0
Plant response rating: Corn (corn (Zea mays); Preemergence, 62 g ai/ha): 20
Plant response rating: Corn (corn (Zea mays); Preemergence, 125 g ai/ha): 20
Plant response rating: Soybean (soybean (Glycine max); Preemergence, 8 g ai/ha): 0
Plant response rating: Soybean (soybean (Glycine max); Preemergence, 16 g ai/ha): 0
Plant response rating: Soybean (soybean (Glycine max); Preemergence, 31 g ai/ha): 0
Plant response rating: Soybean (soybean (Glycine max); Preemergence, 62 g ai/ha): 0
Plant response rating: Soybean (soybean (Glycine max); Preemergence, 125 g ai/ha): 20
Plant response rating: Crabgrass, Brazil ([1]; Preemergence, 8 g ai/ha): 30
Plant response rating: Crabgrass, Brazil ([1]; Preemergence, 16 g ai/ha): 70
Plant response rating: Crabgrass, Brazil ([1]; Preemergence, 31 g ai/ha): 95
Plant response rating: Crabgrass, Brazil ([1]; Preemergence, 62 g ai/ha): 100
Plant response rating: Crabgrass, Brazil ([1]; Preemergence, 125 g ai/ha): 100
Plant response rating: Foxtail, Giant ([2]; 8 g ai/ha): 5
Plant response rating: Foxtail, Giant ([2]; 16 g ai/ha): 80
Plant response rating: Foxtail, Giant ([2]; 31 g ai/ha): 100
Plant response rating: Foxtail, Giant ([2]; 125 g ai/ha): 100
Plant response rating: Foxtail, Green ([3]; 8 g ai/ha): 60
Plant response rating: Foxtail, Green ([3]; 16 g ai/ha): 90
Plant response rating: Foxtail, Green ([3]; 31 g ai/ha): 90
Plant response rating: Foxtail, Green ([3]; 62 g ai/ha): 100
Plant response rating: Foxtail, Green ([3]; 125 g ai/ha): 100
Plant response rating: Field Bindweed ([4]; Preemergence, 8 g ai/ha): 0
Plant response rating: Field Bindweed ([4]; Preemergence, 16 g ai/ha): 0
Plant response rating: Field Bindweed ([4]; Preemergence, 31 g ai/ha): 0
Plant response rating: Field Bindweed ([4]; Preemergence, 62 g ai/ha): 20
Plant response rating: Field Bindweed ([4]; Preemergence, 125 g ai/ha): 50

Cc1nn(-c2ccc(C(F)(F)F)cc2)nc1Cc1ccnc(C(F)(F)F)c1 [Compound 47, 4-[[5-methyl-2-[4-(trifluoromethyl)phenyl]-2H-1,2,3-triazol-4-yl]methyl]-2-(trifluoromethyl)pyridine]
Plant response rating: Corn (corn (Zea mays); Postemergence, 250 g ai/ha): 20
Plant response rating: Corn (corn (Zea mays); Postemergence, 16 g ai/ha): 10
Plant response rating: Corn (corn (Zea mays); Postemergence, 31 g ai/ha): 15
Plant response rating: Corn (corn (Zea mays); Postemergence, 62 g ai/ha): 20
Plant response rating: Corn (corn (Zea mays); Postemergence, 125 g ai/ha): 20
Plant response rating: Corn (corn (Zea mays); Preemergence, 16 g ai/ha): 0
Plant response rating: Corn (corn (Zea mays); Preemergence, 31 g ai/ha): 15
Plant response rating: Corn (corn (Zea mays); Preemergence, 62 g ai/ha): 20
Plant response rating: Corn (corn (Zea mays); Preemergence, 125 g ai/ha): 20
Plant response rating: Corn (corn (Zea mays); Preemergence, 250 g ai/ha): 25
Plant response rating: Soybean (soybean (Glycine max); Postemergence, 250 g ai/ha): 75
Plant response rating: Soybean (soybean (Glycine max); Postemergence, 16 g ai/ha): 50
Plant response rating: Soybean (soybean (Glycine max); Postemergence, 31 g ai/ha): 50
Plant response rating: Soybean (soybean (Glycine max); Postemergence, 62 g ai/ha): 60
Plant response rating: Soybean (soybean (Glycine max); Postemergence, 125 g ai/ha): 60
Plant response rating: Soybean (soybean (Glycine max); Preemergence, 16 g ai/ha): 0
Plant response rating: Soybean (soybean (Glycine max); Preemergence, 31 g ai/ha): 40
Plant response rating: Soybean (soybean (Glycine max); Preemergence, 62 g ai/ha): 40
Plant response rating: Soybean (soybean (Glycine max); Preemergence, 125 g ai/ha): 40
Plant response rating: Soybean (soybean (Glycine max); Preemergence, 250 g ai/ha): 40
Plant response rating: Crabgrass, Brazil ([1]; Postemergence, 250 g ai/ha): 50
Plant response rating: Crabgrass, Brazil ([1]; Postemergence, 16 g ai/ha): 20
Plant response rating: Crabgrass, Brazil ([1]; Postemergence, 31 g ai/ha): 30
Plant response rating: Crabgrass, Brazil ([1]; Postemergence, 62 g ai/ha): 40
Plant response rating: Crabgrass, Brazil ([1]; Postemergence, 125 g ai/ha): 40
Plant response rating: Crabgrass, Brazil ([1]; Preemergence, 16 g ai/ha): 35
Plant response rating: Crabgrass, Brazil ([1]; Preemergence, 31 g ai/ha): 80
Plant response rating: Crabgrass, Brazil ([1]; Preemergence, 62 g ai/ha): 100
Plant response rating: Crabgrass, Brazil ([1]; Preemergence, 125 g ai/ha): 100
Plant response rating: Crabgrass, Brazil ([1]; Preemergence, 250 g ai/ha): 100
Plant response rating: Foxtail, Giant ([2]; 16 g ai/ha): 90
Plant response rating: Foxtail, Giant ([2]; 31 g ai/ha): 100
Plant response rating: Foxtail, Giant ([2]; 62 g ai/ha): 100
Plant response rating: Foxtail, Giant ([2]; 125 g ai/ha): 100
Plant response rating: Foxtail, Giant ([2]; 250 g ai/ha): 100
Plant response rating: Foxtail, Green ([3]; 16 g ai/ha): 85
Plant response rating: Foxtail, Green ([3]; 31 g ai/ha): 100
Plant response rating: Foxtail, Green ([3]; 62 g ai/ha): 100
Plant response rating: Foxtail, Green ([3]; 125 g ai/ha): 100
Plant response rating: Foxtail, Green ([3]; 250 g ai/ha): 100
Plant response rating: Field Bindweed ([4]; Postemergence, 250 g ai/ha): 65
Plant response rating: Field Bindweed ([4]; Postemergence, 31 g ai/ha): 40
Plant response rating: Field Bindweed ([4]; Preemergence, 16 g ai/ha): 25
Plant response rating: Field Bindweed ([4]; Preemergence, 31 g ai/ha): 25
Plant response rating: Field Bindweed ([4]; Preemergence, 62 g ai/ha): 50
Plant response rating: Field Bindweed ([4]; Preemergence, 125 g ai/ha): 85
Plant response rating: Field Bindweed ([4]; Preemergence, 250 g ai/ha): 100

Cc1nn(-c2ccc(F)cc2)nc1Oc1ccnc(C(F)(F)F)c1 [Compound 129, 4-[[2-(4-fluorophenyl)-5-methyl-2H-1,2,3-triazol-4-yl]oxy]-2-(trifluoromethyl)pyridine]
Plant response rating: Corn (corn (Zea mays); Preemergence, 8 g ai/ha): 0
Plant response rating: Corn (corn (Zea mays); Preemergence, 16 g ai/ha): 0
Plant response rating: Corn (corn (Zea mays); Preemergence, 31 g ai/ha): 0
Plant response rating: Corn (corn (Zea mays); Preemergence, 62 g ai/ha): 10
Plant response rating: Corn (corn (Zea mays); Preemergence, 125 g ai/ha): 10
Plant response rating: Soybean (soybean (Glycine max); Preemergence, 8 g ai/ha): 0
Plant response rating: Soybean (soybean (Glycine max); Preemergence, 16 g ai/ha): 15
Plant response rating: Soybean (soybean (Glycine max); Preemergence, 31 g ai/ha): 15
Plant response rating: Soybean (soybean (Glycine max); Preemergence, 62 g ai/ha): 20
Plant response rating: Soybean (soybean (Glycine max); Preemergence, 125 g ai/ha): 25
Plant response rating: Crabgrass, Brazil ([1]; Preemergence, 8 g ai/ha): 10
Plant response rating: Crabgrass, Brazil ([1]; Preemergence, 16 g ai/ha): 15
Plant response rating: Crabgrass, Brazil ([1]; Preemergence, 31 g ai/ha): 60
Plant response rating: Crabgrass, Brazil ([1]; Preemergence, 62 g ai/ha): 95
Plant response rating: Crabgrass, Brazil ([1]; Preemergence, 125 g ai/ha): 100
Plant response rating: Foxtail, Giant ([2]; 8 g ai/ha): 0
Plant response rating: Foxtail, Giant ([2]; 16 g ai/ha): 20
Plant response rating: Foxtail, Giant ([2]; 31 g ai/ha): 75
Plant response rating: Foxtail, Giant ([2]; 62 g ai/ha): 98
Plant response rating: Foxtail, Giant ([2]; 125 g ai/ha): 100
Plant response rating: Foxtail, Green ([3]; 8 g ai/ha): 0
Plant response rating: Foxtail, Green ([3]; 16 g ai/ha): 60
Plant response rating: Foxtail, Green ([3]; 31 g ai/ha): 100
Plant response rating: Foxtail, Green ([3]; 62 g ai/ha): 100
Plant response rating: Foxtail, Green ([3]; 125 g ai/ha): 100
Plant response rating: Field Bindweed ([4]; Preemergence, 8 g ai/ha): 0
Plant response rating: Field Bindweed ([4]; Preemergence, 16 g ai/ha): 0
Plant response rating: Field Bindweed ([4]; Preemergence, 31 g ai/ha): 0
Plant response rating: Field Bindweed ([4]; Preemergence, 62 g ai/ha): 35
Plant response rating: Field Bindweed ([4]; Preemergence, 125 g ai/ha): 35
